This passage reports IC50 results from patent publication US10202365B2, “2-(pyridin-3-yl)-pyrimidine derivatives as RET inhibitors” (BLUEPRINT MEDICINES CORPORATION, priority 2015, dated 2019).

The target of this assay is wild type RET (Homo sapiens (Human), UniProt P07949). The experiment in a line: RET Wild Type Assay at KM (Caliper electrophoretic mobility shift). The following applies: 25 μM ATP, 25° C., 120 minutes. In kind it is biochemical.
wild type RET, sequence (P07949 29-1114): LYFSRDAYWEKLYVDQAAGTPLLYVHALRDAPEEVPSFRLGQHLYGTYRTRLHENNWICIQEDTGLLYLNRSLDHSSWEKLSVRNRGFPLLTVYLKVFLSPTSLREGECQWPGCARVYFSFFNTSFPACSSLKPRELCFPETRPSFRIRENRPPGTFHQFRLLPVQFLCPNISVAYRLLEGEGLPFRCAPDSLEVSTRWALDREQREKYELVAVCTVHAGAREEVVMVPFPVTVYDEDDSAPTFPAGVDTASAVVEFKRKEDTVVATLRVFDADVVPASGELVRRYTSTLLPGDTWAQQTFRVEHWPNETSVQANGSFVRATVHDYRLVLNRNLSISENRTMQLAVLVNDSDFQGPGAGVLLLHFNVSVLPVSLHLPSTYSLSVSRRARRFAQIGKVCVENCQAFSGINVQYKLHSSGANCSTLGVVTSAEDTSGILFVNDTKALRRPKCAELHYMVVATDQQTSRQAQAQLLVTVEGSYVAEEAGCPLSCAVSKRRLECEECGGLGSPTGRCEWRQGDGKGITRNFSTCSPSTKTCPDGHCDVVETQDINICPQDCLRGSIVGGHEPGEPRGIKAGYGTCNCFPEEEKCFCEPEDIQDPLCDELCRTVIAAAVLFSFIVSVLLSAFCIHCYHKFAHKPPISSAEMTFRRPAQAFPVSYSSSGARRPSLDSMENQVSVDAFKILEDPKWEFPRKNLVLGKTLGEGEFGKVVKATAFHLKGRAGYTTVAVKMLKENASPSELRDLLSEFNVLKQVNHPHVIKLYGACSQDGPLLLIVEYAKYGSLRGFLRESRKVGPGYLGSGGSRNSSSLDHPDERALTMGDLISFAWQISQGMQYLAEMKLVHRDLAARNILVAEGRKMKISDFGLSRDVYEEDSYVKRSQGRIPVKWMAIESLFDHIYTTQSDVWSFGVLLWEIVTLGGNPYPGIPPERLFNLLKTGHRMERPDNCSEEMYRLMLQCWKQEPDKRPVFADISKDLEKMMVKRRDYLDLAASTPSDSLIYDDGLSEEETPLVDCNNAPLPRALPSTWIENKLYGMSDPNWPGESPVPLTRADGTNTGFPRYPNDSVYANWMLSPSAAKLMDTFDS
In the case of `Cc1cc(Nc2cc(C)[nH]n2)nc(-c2ccc(C(=O)NCc3ccoc3)nc2)n1` [Compound 1], the IC50 was in the range of 10 to 100 nM.
With `Cc1cc(Nc2cc(C)[nH]n2)nc(-c2ccc(C(=O)NCc3cncs3)nc2)n1` [Compound 3] the figure was more than 100 nM; with `Cc1cc(Nc2cc(C)[nH]n2)nc(-c2ccc(C(=O)N3Cc4ccccc4C3)nc2)n1` [Compound 4], 10 to 100 nM; with `Cc1ccc(CNC(=O)c2ccc(-c3nc(C)cc(Nc4cc(C)[nH]n4)n3)cn2)cc1` [Compound 5], 10 to 100 nM.
For the compound `Cc1cc(Nc2cc(C)[nH]n2)nc(-c2ccc(C(=O)N[C@H](C)c3ccccc3)nc2)n1` [Compound 6], the 50% inhibitory concentration (IC50) is more than 100 nM.
Then `Cc1ccc(CNC(=O)c2ccc(-c3nc(C)cc(Nc4cc(C)[nH]n4)n3)cn2)nc1` [Compound 7], with 10 to 100 nM; and `Cc1cc(Nc2cc(C)[nH]n2)nc(-c2ccc(C(=O)NCc3cccc(F)c3)nc2)n1` [Compound 8], with more than 100 nM.
For `Cc1cc(Nc2cc(C)[nH]n2)nc(-c2ccc(C(=O)NCc3ccc(F)cc3)nc2)n1` [Compound 9], the IC50 lay in the range of 10 to 100 nM.
With `Cc1cc(Nc2cc(C)[nH]n2)nc(-c2ccc(C(=O)NCc3ccc(Cl)cc3)nc2)n1` [Compound 11], the half-inhibitory concentration (IC50) lay within 10 to 100 nM.
In the case of `CCOc1ccc(CNC(=O)c2ncc(-c3nc(C)cc(Nc4cc(C)[nH]n4)n3)cc2C)cc1` [Compound 13], the IC50 was 10 to 100 nM.
With `CCOc1ccc([C@@H](C)NC(=O)c2ncc(-c3nc(C)cc(Nc4cc(C)[nH]n4)n3)cc2C)cc1` [Compound 16] the figure was more than 100 nM; with `CCOc1ccc([C@H](C)NC(=O)c2ncc(-c3nc(C)cc(Nc4cc(C)[nH]n4)n3)cc2C)cc1` [Compound 17], more than 100 nM; with `Cc1cnn(-c2ccc(CNC(=O)c3ccc(-c4nc(C)cc(Nc5cc(C)[nH]n5)n4)cn3)cn2)c1` [Compound 18], less than 10 nM.
Then `Cc1cc(Nc2cc(C)[nH]n2)nc(-c2cnc(C(=O)NCc3ccc(-n4cccn4)nc3)c(C)c2)n1` [Compound 19], with less than 10 nM.
With `Cc1cc(Nc2cc(C)[nH]n2)nc(-c2ccc(C(=O)NCc3cnc(-n4cc(F)cn4)cn3)nc2)n1` [Compound 21] the figure was less than 10 nM; with `Cc1cc(Nc2cc(C)[nH]n2)nc(-c2ccc(C(=O)NCc3ccc(-n4cc(C#N)cn4)nc3)nc2)n1` [Compound 22], 10 to 100 nM; with `Cc1cc(Nc2cc(C)[nH]n2)nc(-c2cnc(C(=O)N[C@@H](C)c3ccc(-n4cccn4)nc3)c(C)c2)n1` [Compound 23], less than 10 nM.
As for `Cc1cc(Nc2cc(C)[nH]n2)nc(-c2ccc(C(=O)NCc3ccc(-n4nc(C)cc4C)nc3)nc2)n1` [Compound 24], the IC50 was less than 10 nM.
`Cc1cc(Nc2cc(C)[nH]n2)nc(-c2ccc(C(=O)N[C@@H](C)c3ccc(-n4cc(F)cn4)nc3)nc2)n1` [Compound 25, (S)—N-(1-(6-(4-fluoro-1H-pyrazol-1-yl)pyridin-3-yl)ethyl)-5-(4-methyl-6-((5-methyl-1H-pyrazol-3-yl)amino)pyrimidin-2-yl)picolinamide]: the IC50 is less than 10 nM.
With `Cc1cc(Nc2cc(C)[nH]n2)nc(-c2ccc(C(=O)NCc3ccc(-n4ccc(C5CC5)n4)nc3)nc2)n1` [Compound 26], the half-maximal inhibitory concentration (IC50) was less than 10 nM.
With `Cc1cc(Nc2cc(C)[nH]n2)nc(-c2ccc(C(=O)NCc3ccc(-n4cc(C5CC5)cn4)nc3)nc2)n1` [Compound 27] the figure was 10 to 100 nM; with `Cc1cc(Nc2cc(C)[nH]n2)nc(-c2ccc(C(=O)NCc3ccc(-n4cc(CCO)cn4)nc3)nc2)n1` [Compound 28], 10 to 100 nM.
Then `Cc1cc(Nc2cc(C)[nH]n2)nc(-c2cnc(C(=O)N[C@@H](C)c3ccc(-n4cc(F)cn4)nc3)c(C)c2)n1` [Compound 29, (S)—N-(1-(6-(4-fluoro-1H-pyrazol-1-yl)pyridin-3-yl)ethyl)-3-methyl-5-(4-methyl-6-((5-methyl-1H-pyrazol-3-yl)amino)pyrimidin-2-yl)picolinamide], with less than 10 nM; and `Cc1cc(Nc2cc(C)[nH]n2)nc(-c2cnc(C(=O)N[C@@H](C)c3ccc(-n4cc(F)cn4)nc3)c(F)c2)n1` [Compound 30, (S)-3-fluoro-N-(1-(6-(4-fluoro-1H-pyrazol-1-yl)pyridin-3-yl)ethyl)-5-(4-methyl-6-((5-methyl-1H-pyrazol-3-yl)amino)pyrimidin-2-yl)picolinamide], with less than 10 nM.
`Cc1cc(Nc2cc(C)[nH]n2)nc(-c2ccc(C(=O)NCc3ccc(-n4cc(C(F)F)cn4)nc3)nc2)n1` [Compound 31]: the IC50 was in the range of 10 to 100 nM.
`Cc1cc(Nc2cc(C)[nH]n2)nc(-c2ccc(C(=O)NCc3ccc(-n4cc(C(F)F)c(C)n4)nc3)nc2)n1` [Compound 32]: the IC50 was in the range of 10 to 100 nM.
Then `CC[C@@H](NC(=O)c1ccc(-c2nc(C)cc(Nc3cc(C)[nH]n3)n2)cn1)c1ccc(-n2cc(F)cn2)nc1` [Compound 34], with less than 10 nM.
